Read-outs that look alike come from different tables or passages of the source.
How the values were obtained:
[1] = target: PRMT5-MEP50 (Homo sapiens, UniProt O14744); experiment: PRMT5 Assay (PRMT5 biochemical assay)
In short: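 Radiometric methyltransferase read-out: after 60 min reaction, excess unlabelled SAM (15 μM) stops turnover and biotinylated H4 peptide (100 nM) carrying 3H-methyl from 250 nM 3H-SAM is captured on streptavidin flashplates (2 h, 25° C) for scintillation counting. Enzyme, 2.5 nM PRMT5-MEP50, was preincubated 5 min with compound in pH 8.0 Tris buffer with DTT and Tween.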

[2] = tested on: MOLM-13 cells; experiment: MOLM-13 96 Hour Cell Proliferation Assay; type: cell-based; settings: Homo sapiens
In short: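 MOLM-13 cells in RPMI 1640 with 10% FBS were plated overnight at 37 °C, then exposed to compound dilutions at 0.25% DMSO final for 96 h. Viability was read by CellTiter-Glo luminescence, normalised to staurosporine (100% death) and DMSO (0% death) controls, and IC50 was fitted by 4-parameter logistic regression.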

[3] = target: METTL1/WDR4 (Homo sapiens, UniProt Q9UBP6); experiment: METTL1 Assay (METTL1 biochemical assay)
METTL1/WDR4, sequence (Q9UBP6 whole entry, species assumed): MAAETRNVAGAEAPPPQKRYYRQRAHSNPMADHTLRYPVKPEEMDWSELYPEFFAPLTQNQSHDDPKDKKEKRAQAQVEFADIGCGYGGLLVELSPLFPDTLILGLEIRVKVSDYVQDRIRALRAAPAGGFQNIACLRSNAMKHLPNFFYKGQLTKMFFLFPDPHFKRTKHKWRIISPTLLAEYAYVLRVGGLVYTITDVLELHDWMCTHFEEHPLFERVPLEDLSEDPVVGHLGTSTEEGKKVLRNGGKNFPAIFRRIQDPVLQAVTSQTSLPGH
METTL1/WDR4, sequence (P57081 whole entry partner, species assumed): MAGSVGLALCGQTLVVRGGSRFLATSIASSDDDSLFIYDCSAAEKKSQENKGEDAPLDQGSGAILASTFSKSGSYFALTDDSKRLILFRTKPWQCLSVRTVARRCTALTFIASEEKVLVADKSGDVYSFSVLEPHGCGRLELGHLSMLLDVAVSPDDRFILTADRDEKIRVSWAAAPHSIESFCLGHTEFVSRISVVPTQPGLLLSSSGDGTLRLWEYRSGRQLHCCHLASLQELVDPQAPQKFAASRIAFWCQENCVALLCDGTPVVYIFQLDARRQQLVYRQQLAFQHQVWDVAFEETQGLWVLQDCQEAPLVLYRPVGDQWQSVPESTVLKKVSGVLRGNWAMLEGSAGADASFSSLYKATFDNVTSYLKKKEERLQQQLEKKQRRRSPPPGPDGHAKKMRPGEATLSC
In short: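 Radiometric methyltransfer by METTL1/WDR4 (6.25 nM f.c., 5 min preincubation) at ambient temperature in HEPES pH 7.5, KCl, MgCl2, DTT; started with 25 nM 3′-biotinylated RNA and 60 nM 3H-SAM, run 20 min, quenched with 15 μM cold SAM. Product captured on streptavidin flashplates (2 h, 25° C), counted by scintillation.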

[4] = read-out: PRMT5 IC50; PRMT5 biochemical assay
[5] = read-out: METTL1 IC50, METTL1 biochemical assay
[6] = PRMT5 biochemical assay; read-out: PRMT5 IC50

PRMT5-MEP50, sequence (O14744 whole entry): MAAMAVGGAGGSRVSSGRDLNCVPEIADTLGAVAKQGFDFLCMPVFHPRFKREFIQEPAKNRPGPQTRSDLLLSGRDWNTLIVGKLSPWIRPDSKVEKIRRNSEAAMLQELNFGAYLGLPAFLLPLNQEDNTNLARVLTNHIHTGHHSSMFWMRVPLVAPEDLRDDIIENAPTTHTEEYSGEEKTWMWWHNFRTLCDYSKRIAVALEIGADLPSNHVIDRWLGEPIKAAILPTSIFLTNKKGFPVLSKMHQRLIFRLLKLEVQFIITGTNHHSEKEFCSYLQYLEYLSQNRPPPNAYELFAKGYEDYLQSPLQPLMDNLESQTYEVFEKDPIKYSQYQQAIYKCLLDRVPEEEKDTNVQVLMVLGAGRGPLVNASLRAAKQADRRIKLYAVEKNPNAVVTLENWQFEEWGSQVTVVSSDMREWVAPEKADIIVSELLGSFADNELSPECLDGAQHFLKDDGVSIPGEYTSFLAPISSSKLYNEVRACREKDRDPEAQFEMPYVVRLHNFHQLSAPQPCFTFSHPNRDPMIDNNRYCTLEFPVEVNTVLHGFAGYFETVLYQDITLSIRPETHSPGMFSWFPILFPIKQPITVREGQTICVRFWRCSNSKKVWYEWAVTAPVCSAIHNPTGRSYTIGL
PRMT5-MEP50, sequence (Q9BQA1 whole entry partner): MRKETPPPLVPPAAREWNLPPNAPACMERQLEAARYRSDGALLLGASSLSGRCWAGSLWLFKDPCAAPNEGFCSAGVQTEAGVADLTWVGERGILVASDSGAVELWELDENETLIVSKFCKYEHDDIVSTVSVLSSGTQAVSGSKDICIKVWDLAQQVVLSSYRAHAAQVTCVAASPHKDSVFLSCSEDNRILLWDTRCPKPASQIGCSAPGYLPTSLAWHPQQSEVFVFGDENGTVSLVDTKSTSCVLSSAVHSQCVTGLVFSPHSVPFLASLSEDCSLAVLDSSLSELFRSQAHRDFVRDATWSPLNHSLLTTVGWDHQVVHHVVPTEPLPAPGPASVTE

Compound | IC50 [1, 4] | IC50 [2] | IC50 [3, 5] | IC50 [1, 6] | IC50 ([2]; MOLM-13, 96 h) | IC50 ([3]; METTL1 biochemical assay, read-out: METTL1 IC50) | IC50 [3]
CCNc1ccc2ccc(OC[C@H]3O[C@@H](n4cc(-c5cn(C)cn5)c5c(N)ncnc54)[C@@H](F)[C@@H]3O)cc2n1 [I-10] | 0.1 to 1 µM | < 1 µM |  |  |  |  | 
CNc1ccc2ccc(OC[C@H]3O[C@@H](n4cc(Br)c5c(N)ncnc54)[C@H](O)[C@@H]3O)cc2n1 [I-73] |  |  | > 1 µM | < 0.01 µM | < 1 µM |  | 
CNc1ccc2ccc(OC[C@H]3O[C@@H](n4cc(-c5ccn(C)n5)c5c(N)ncnc54)[C@@H](F)[C@@H]3O)cc2n1 [I-12] | 0.01 to 0.1 µM | < 1 µM |  |  |  |  | 
CNc1ccc2ccc(OC[C@H]3O[C@@H](n4cc(Cl)c5c(N)ncnc54)[C@H](O)[C@@H]3O)cc2n1 [I-70] |  |  | > 1 µM | < 0.01 µM | < 1 µM |  | 
CNc1ccc2ccc(OC[C@H]3O[C@@H](n4cc(CC5CCCC5)c5c(N)ncnc54)[C@H](O)[C@@H]3O)cc2n1 [I-23] |  |  | > 1 µM | 0.01 to 0.1 µM |  |  | 
Cn1ccc(-c2cn([C@@H]3O[C@H](COc4ccc5ccc(N6CCC6)nc5c4)[C@@H](O)[C@@H]3F)c3ncnc(N)c23)n1 [I-149] | > 1 µM |  |  |  | < 1 µM | > 1 µM | 
CNc1ccc2ccc(OC[C@H]3O[C@@H](n4cc(C5CCCC5)c5c(N)ncnc54)[C@H](O)[C@@H]3O)cc2n1 [I-33, (2R,3R,4S,5R)-2-(4-amino-5-cyclopentyl-7H-pyrrolo[2,3-d]pyrimidin-7-yl)-5-(((2-(methylamino)quinolin-7-yl)oxy)methyl)tetrahydrofuran-3,4-diol] |  |  |  | < 0.01 µM | < 1 µM |  | > 1 µM
CNc1ccc2ccc(OC[C@H]3O[C@@H](n4cc(C5CC5)c5c(N)ncnc54)[C@@H](F)[C@@H]3O)cc2n1 [I-29] |  |  | > 1 µM | 0.1 to 1 µM | < 1 µM |  | 
CNc1ccc2ccc(CC[C@H]3O[C@@H](n4cc(C5CCCC5)c5c(N)ncnc54)[C@H](O)[C@@H]3O)cc2n1 [I-39] |  |  | > 1 µM | < 0.01 µM | < 1 µM |  | 
CNc1ccc2ccc(OC[C@H]3O[C@@H](n4cc(CC5CC5)c5c(N)ncnc54)[C@@H](F)[C@@H]3O)cc2n1 [I-36] |  |  | > 1 µM | 0.1 to 1 µM | < 1 µM |  | 

— patent publication US20230027361A1, “METTL3 MODULATORS” (priority 2019, published 2023)
